Assay results as given in US20190192524A1, “Modulators of Caspase-6” (The University of British Columbia, priority 2014, published 2019).

How the values were obtained:
caspase-6 = target: T1, caspase-6 (Mus musculus, UniProt O08738); assay: Lamin A cleavage in primary cortical neuronal culture treated with camptothecin; type: cell-based, FVB/N mice; conditions: 10 uM compound; 10 uM camptothecin for 30 h
T1 construct: endogenous in cells; host or cells: primary cortical neurons from FVB/N mice
T1 sequence (O08738 6-276): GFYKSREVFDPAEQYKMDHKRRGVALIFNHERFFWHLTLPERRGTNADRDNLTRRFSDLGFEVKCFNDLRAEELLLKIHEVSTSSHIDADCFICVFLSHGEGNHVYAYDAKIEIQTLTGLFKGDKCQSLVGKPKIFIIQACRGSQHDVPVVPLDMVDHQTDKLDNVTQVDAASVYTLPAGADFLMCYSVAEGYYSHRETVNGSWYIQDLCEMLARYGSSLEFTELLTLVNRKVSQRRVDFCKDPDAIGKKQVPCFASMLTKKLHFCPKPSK
Description: Cortical neuronal cultures from FVB mice were prepared as described (Metzler et al, J Neurosci (2007) 27(9):2298). At day 10 in vitro, cells were treated with camptothecin, and after 30 h harvested by scraping in PBS supplemented with 1× complete protease inhibitor (Roche) and 4 mM Pefabloc. Cells were lysed by suspension in lysis buffer (50 mM Tris pH8, 150 mM NaCl, 1% Igepal, supplemented with 1× complete protease inhibitor (Roche) and 4 mM Pefabloc). Lysates were incubated on ice for 10 min, vortexed and sonicated for 4 sec before centrifugation at 21 000×g for 10 min at 4° C. Supernatants were saved, protein concentration determined with the Biorad DC assay and quantitative assessment of cleaved lamin A in neuronal lysates was performed with the Mesoscale ELISA method as described in Ehrnhoefer et al. PLoS One, 2011. 6(11):e27680.
Next, it was determined whether the PG-3d compound could inhibit caspase-6 within neuronal cells in an in vitro neuronal system which may be more relevant for the testing of therapeutics for neurodegeneration. Briefly, primary cortical neuronal cultures from FVB/N mice were treated with 10 uM camptothecin for 30 h starting at DIV10 in the presence or absence of 10 uM of the PG-3d compound.

primary cortical neurons = assay: Neuronal viability during excitotoxic (NMDA) stress, intracellular ATP; type: cell-based, FVB/N mice; conditions: 10 uM compound; NMDA 25 uM or 50 uM, 20 h
Description: Cortical neuronal cultures from FVB mice were prepared as described (Metzler et al, J Neurosci (2007) 27(9):2298). […] The measurement of intracellular ATP was used as an assessment of neuronal viability as described previously (Uribe et al, HMG 2012. 21(9):1954-67) using the Cell-titer glo kit from Promega according to manufacturer's instructions.
It has been previously been shown in HD animal models that neuronal cells expressing mHTT have an increased vulnerability to excitotoxic stress (Graham et al. 2005. Neurobiol. Dis. 21:444-455) and that this may be mediated by caspase 6 (Graham et al. 2006. Cell 6(13):1179-1191 and Uribe et al HMG 2012; 21(9):1954-67). The link between NMDA-induced toxicity and other neurodegenerative diseases has been reviewed by Lipton et al., Nat Rev Drug Discovery 2006. 5:160-170. Therefore, the effect of the presence of the PG-3d compound on the ability of neuronal cells to survive during excitotoxic stress via its ability to inhibit the caspase-6 enzyme was investigated.

recombinant caspase-6 = target: T2, recombinant caspase-6 (Homo sapiens, UniProt P55212); assay: Simultaneous caspase-6 cleavage and 586 fragment detection by FRET; type: biochemical; conditions: cell-free; Htt substrate from COS-7 cell lysates
T2 construct: purchased BioMol
T2 sequence (P55212 24-293): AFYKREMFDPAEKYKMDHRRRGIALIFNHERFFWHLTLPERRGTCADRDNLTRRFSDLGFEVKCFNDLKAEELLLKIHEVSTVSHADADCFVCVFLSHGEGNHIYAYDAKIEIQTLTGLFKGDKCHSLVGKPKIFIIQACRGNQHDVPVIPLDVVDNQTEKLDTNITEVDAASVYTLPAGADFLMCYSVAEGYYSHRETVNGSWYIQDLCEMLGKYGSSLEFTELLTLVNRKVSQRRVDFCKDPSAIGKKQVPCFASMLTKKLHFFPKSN
Description: Different concentrations of the PG3 compounds were incubated with the Htt protein and the caspase-6 enzyme. The Htt substrate from COS-7 cell lysates is cleaved by caspase 6 and fragments are detected by FRET between the N-terminal BKP1 antibody and the neo-epitope antibody against amino acid 586.
COS-7 cells were grown in DMEM supplemented with 10% fetal bovine serum, 1%/penicillin/streptomycin and 0.5% glutamine. Transfections were performed using the Fugene reagent (Roche) according to manufacturer's instructions. The transfected DNA encodes amino acids 1-1212 of the human Htt protein with 15 glutamines and a C-terminal HA-tag, under control of a CMV promoter (Warby, 2008, supra; Wellington et al., 2000. J Biol Chem 275:19831-19838). The construct that was transfected is 4c Htt, which contains D→A mutations at amino acids 513, 530, 552 and […] (SEQ ID NO: 1). 24 h after transfection, cells were harvested by trypsinization, pellets washed in PBS and lysed by suspension in lysis buffer (50 mM Tris pH 8, 150 mM NaCl, 1% Igepal, supplemented with 1× complete protease inhibitor (Roche) and 4 mM Pefabloc). Lysates were incubated on ice for 10 min, vortexed and sonicated for 4 sec before centrifugation at 21,000×g for 10 min at 4° C. Supernatants were saved, protein concentration determined with the Biorad DC assay and stored at −80° C. until use.
Dilution series of cell lysates and caspase-6 (2.2× final concentration) were prepared in FRET cleavage buffer (10 mM HEPES pH 7.4, 100 mM NaCl, 0.05% gelatin, 0.1% CHAPS, 2 mM DTT) since this buffer was previously found to best stabilize caspase-6 in dilute form at room temperature. For negative controls, 22 μM zVAD-fmk was added to the caspase-6 dilutions.
Tb-labelled BKP1 antibody and D2-labelled 586 antibody (Cisbio) were diluted to 1 ng/μl (Tb) and 10 ng/μl (D2) in FRET cleavage buffer and pre-mixed at a 1:1 ratio.
In each well of a white 384 well plate (Nunc), 10 μl cell lysate were mixed with 10 μl caspase and 2 μl antibody mix, the plate was centrifuged briefly and incubated in the Victor 3 multilabel plate reader (Perkin Elmer) at 37° C. FRET was measured every 30 min for up to 2 h with the following settings: Excitation: 340 nm, Emission 1: 615 nm, Emission 2: 665 nm, 50 μs delay, 200 μs window time, 2000 μs cycle time. To obtain the final FRET signal, the ratio between Emission 2/Emission 1 (D2/Tb signal) was calculated. After 2 h at 37° C., the assay plate was sealed and after further incubation at 4° C. for 20 h, the FRET signal was read again.

In the case of `O=c1oc(C#Cc2ccccc2)nc(O)c1Cc1ccccc1` [PG-3d, 5-Benzyl-4-hydroxy-2-(phenylethynyl)-6H-1,3-oxazin-6-one], the “caspase-6 activity (cleaved lamin A)” value (caspase-6) is reported as “significantly reduces”, the “cell viability (intracellular ATP)” value (primary cortical neurons) is reported as “significant improvement” and the IC50 (recombinant caspase-6) is reported as 5.6 µM.
